Earlier results as cited in patent US20250345298A1, “APOE4 CORRECTORS AND METHODS OF USE” (Alzheon, Inc., priority 2022, published 2025).

| Compound | safety in human subjects | efficacy in Alzheimer's disease trials (human clinical trials for AD) |
| --- | --- | --- |
| CC(C)[C@H](N)C(=O)NCCCS(=O)(=O)O [ALZ-801, valyl-3-amino-1-propanesulfonic acid] | safe |  |
| NCCCS(=O)(=O)O [Tramiprosate, 3-amino-1-propanesulfonic acid] | safe | suggested efficacy in at least some patients |
